Target: T1, human membrane progestin receptor α (hmPRα) (Homo sapiens, UniProt Q86WK9)
T1 construct: gene PAQR7; DDM-solubilized and purified over Ni-NTA, Cellufine Amino and SP-Sepharose; ~50 kDa band, theoretical 52 kDa with signal
T1 sequence (Q86WK9 1-346): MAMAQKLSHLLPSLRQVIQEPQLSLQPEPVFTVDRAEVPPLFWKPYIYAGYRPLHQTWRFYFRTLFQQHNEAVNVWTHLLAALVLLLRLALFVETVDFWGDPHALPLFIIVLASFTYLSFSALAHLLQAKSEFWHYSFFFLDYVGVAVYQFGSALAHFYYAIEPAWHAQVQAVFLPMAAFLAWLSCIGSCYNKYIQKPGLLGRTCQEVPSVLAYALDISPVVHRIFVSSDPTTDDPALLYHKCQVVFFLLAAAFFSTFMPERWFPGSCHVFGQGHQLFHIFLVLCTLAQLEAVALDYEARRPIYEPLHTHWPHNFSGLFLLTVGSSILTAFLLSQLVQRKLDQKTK
Experiment: radioligand saturation filter binding, Scatchard analysis

CC(=O)[C@H]1CC[C@H]2[C@@H]3CCC4=CC(=O)CC[C@]4(C)[C@H]3CC[C@]12C [progesterone]
Kd: 5.2 nM
